Measurements reported in patent publication US20160009725A1, “PYRROLO- AND PYRAZOLO-TRIAZOLODIAZEPINES AS BET-PROTEIN INHIBITORS FOR TREATING HYPERPROLIFERATIVE DISEASES” (BAYER PHARMA AKTIENGESELLSCHAFT, priority 2013, published 2016).
pIC50: −log10 of the molar value. Like-named read-outs stand apart in the source and are kept apart here.

Experiments:
[1] = system: LAPC-4 cells; assay: Cell proliferation assay (alamarBlue), LAPC-4; type: cell-based; conditions: Homo sapiens, LAPC4, prostate cancer, 1 nM methyltrienolone, 168 hours incubation
Experimental: (§1) In accordance with the invention, the ability of the substances to inhibit cell proliferation was determined Cell viability was determined by means of the alamarBlue® reagent (Invitrogen) in a Victor ×3 Multilabel Reader (Perkin Elmer). The excitation wavelength was 530 nm and the emission wavelength […].
The LAPC-4 cells (ATCC, PTA-1441TM) were sown at a concentration of 4000 cells/well in 100 μl of growth medium (RPMI1640, 2 mM L-glutamine, 10% cFCS) on 96-well microtitre plates. One day later, the LAPC-4 cells were treated with 1 nM methyltrienolone and various substance dilutions.
(§2) After overnight incubation at 37° C., the fluorescence values (CI values) were determined. Then the plates were treated with various substance dilutions (1E-5 M, 3E-6 M, 1E-6 M, 3E-7 M, 1E-7 M, 3E-8 M, 1E-8 M) and incubated at 37° C. over 96 (MOLM-13, B16F10, MDA-MB-431 cells), 120 (MOLP-8 cells) or 168 (LAPC-4 cells) hours. Subsequently, the fluorescence values were determined (CO values). For the data analysis, the CI values were subtracted from the CO values and the results were compared between cells which had been treated with various dilutions of the substance or only with buffer solution. The IC50 values (substance concentration needed for 50% inhibition of cell proliferation) were calculated therefrom.
(§3) The substances were tested in the cell lines in Table 1, which represent the indications specified by way of example: […]

[2] = target: T1, BRD4 (BD1) (Homo sapiens, UniProt O60885); assay: Binding assay BRD4/acetylated peptide H4 (TR-FRET protein-protein interaction assay)
T1 construct: N-terminally His6-tagged BRD4 (BD1) (amino acids 67-152, longer constructs also being possible, preferably amino acids 44-168); made in house; host or cells: E. coli
Excerpt: To assess the BRD4 binding strength of the substances described in this application, the ability thereof to inhibit the interaction between BRD4 (BD1) and acetylated histone H4 in a dose-dependent manner was quantified. For this purpose, a time-resolved fluorescence resonance energy transfer (TR-FRET) assay was used, which measures the binding between N-terminally His6-tagged BRD4 (BD1) (amino acids 67-152, longer constructs also being possible, preferably amino acids 44-168) and a synthetic acetylated histone H4 (Ac-H4) peptide with sequence […]-biotin. The recombinant BRD4 protein produced in-house according to Filippakopoulos et al., Nature, 2010, 468:1119-1123 was expressed in E. coli and purified by means of (Ni-NTA) affinity and (Sephadex G-75) size exclusion chromatography. The Ac-H4 peptide can be purchased, for example, from Biosyntan (Berlin, Germany). […] For this purpose, 100-fold concentrated solutions in DMSO were prepared by serial dilutions (1:3.4) of a 2 mM stock solution into a clear, 384-well microtitre plate (Greiner Bio-One, Frickenhausen, Germany). From this, 50 nl were transferred into a black test plate (Greiner Bio-One, Frickenhausen, Germany). […] This was followed by a 10-minute incubation step at 22° C. for the pre-equilibration of putative complexes between BRD4 and the substances. […] The mixture was then incubated in the dark at 22° C. for one hour and then at 4° C. for at least 3 hours and for no longer than overnight. The formation of BRD4/Ac-H4 complexes was determined by the measurement of the resonance energy transfer from the streptavidin-Eu cryptate to the anti-6His-XL665 antibody present in the reaction. For this purpose, the fluorescence emission was measured at 620 nm and 665 nm after excitation at 330-350 nm in a TR-FRET measuring instrument, for example a Rubystar or Pherastar (both from BMG Lab Technologies, Offenburg, Germany) or a Viewlux (Perkin-Elmer). The ratio of the emissions at 665 nm and at […] was taken as an indicator of the amount of BRD4/Ac-H4 complexes formed. The data (ratios) obtained were normalized, with 0% inhibition corresponding to the mean from the measurements for a set of controls (typically 32 data points) in which all the reagents were present. In these, in place of test substances, 50 nl of DMSO (100%) were used Inhibition of 100% corresponded to the mean from the measurements for a set of controls (typically 32 data points) in which all the reagents except BRD4 were present. The IC50 was determined by regression analysis based on a 4-parameter equation (minimum, maximum, IC50, Hill; […])).

[3] = system: B16F10 cells; assay: Cell proliferation assay (alamarBlue), B16F10; type: cell-based; conditions: Mus musculus, B16-F10, melanoma (BRAF wild-type), 96 hours incubation
Experimental: as §1
The B16F10 cells (ATCC, CRL-6475) were sown at a concentration of 300-500 cells/well in 100 μl of growth medium (DMEM with phenol red, 10% FCS) on 96-well microtitre plates.
as §2, §3

[4] = system: MOLM-13 cells; assay: Cell proliferation assay (alamarBlue), MOLM-13; type: cell-based; conditions: Homo sapiens, acute myeloid leukaemia, 96 hours incubation
Experimental: as §1
The MOLM-13 cells (DSMZ, ACC 554) were sown at a concentration of 4000 cells/well in 100 μl of growth medium (RPMI1640, 10% FCS) on 96-well microtitre plates.
as §2, §3

[5] = system: MDA-MB-231 cells; assay: Cell proliferation assay (alamarBlue), MDA-MB-231; type: cell-based; conditions: Homo sapiens, mammary carcinoma, 96 hours incubation, read-out: Breast MDA-MB-231 IC50
Experimental: as §1
The MDA-MB-231 cells (DSMZ, ACC 732) were sown at a concentration of 4000 cells/well in 100 μl of growth medium (DMEM/Ham's F12 medium, 10% FCS) on 96-well microtitre plates.
as §2, §3

[6] = system: MOLP-8 cells; assay: Cell proliferation assay (alamarBlue), MOLP-8; type: cell-based; conditions: Homo sapiens, multiple myeloma, 120 hours incubation
Experimental: as §1
The MOLP-8 cells (DSMZ, ACC 569) were sown at a concentration of 4000 cells/well in 100 μl of growth medium (RPMI1640, 20% FCS) on 96-well microtitre plates.
as §2, §3

[7] = BRD4 (BD1) / acetylated histone H4 peptide, TR-FRET, read-out: IC50 (BRD4)

With `Cc1c2c(cn1C)-n1c(C)nnc1[C@H](CC(=O)N1C3CCC1CC(=O)C3)N=C2c1ccc(Cl)cc1` (single isomer, unassigned; (-)) [Example 6] the pIC50 [1] was 6.28, the pIC50 [2, 7] was 6.62 and the pIC50 [3] was 6.05. The pIC50 [4] was 5.91.

For `Cc1c2c(cn1C)-n1c(C)nnc1[C@H](CC(=O)N1CC3CCC(C1)O3)N=C2c1ccc(Cl)cc1` (single isomer, unassigned; (-)) [Example 8], the pIC50 [1] was 6.27, the pIC50 [2, 7] was 6.72 and the pIC50 [4] was 6.12.

For `Cc1c2c(cn1C)-n1c(C)nnc1[C@H](CC(=O)N1CC3CCC(C3)C1)N=C2c1ccc(Cl)cc1` (single isomer, unassigned; (-)) [Example 10], the pIC50 [2, 7] was 6.51 and the pIC50 [4] was 5.84.

With `Cc1c2c(cn1C)-n1c(C)nnc1[C@H](CC(=O)N1CC3CCC1CC3)N=C2c1ccc(Cl)cc1` (single isomer, unassigned; (-)) [Example 14] the pIC50 [1] was 6.28, the pIC50 [2, 7] was 7.00 and the pIC50 [4] was 6.16.

Work on `Cc1c2c(cn1C)-n1c(C)nnc1[C@H](CC(=O)N1CC3CC1CO3)N=C2c1ccc(Cl)cc1` (stereo in doubt) [Example 7, (−)-2-[(4S)-6-(4-Chlorophenyl)-1,7,8-trimethyl-4,8-dihydropyrrolo[3,4-f][1,2,4]triazolo[4,3-a][1,4]diazepin-4-yl]-1-{(1S,4S)-2-oxa-5-azabicyclo[2.2.1]hept-5-yl}ethan-1-one] yielded a pIC50 [2, 7] of 6.68.

`Cc1c2c(cn1C)-n1c(C)nnc1[C@H](CC(=O)N1CC3(COC3)C1)N=C2c1ccc(Cl)cc1` [Example 1, (−)-2-[(4S)-6-(4-Chlorophenyl)-1,7,8-trimethyl-4,8-dihydropyrrolo[3,4-f][1,2,4]triazolo-[4,3-a][1,4]diazepin-4-yl]-1-(2-oxa-6-azaspiro[3.3]hept-6-yl)ethan-1-one] gave a pIC50 [1] of 6.17, a pIC50 [2, 7] of 6.82 and a pIC50 [3] of 5.94. The pIC50 [4] was 6.15.

`Cc1c2c(cn1C)-n1c(C)nnc1[C@H](CC(=O)N1CC3(COC3)C1)N=C2c1ccccc1` [Example 2, 2-(1,7,8-Trimethyl-6-phenyl-4,8-dihydropyrrolo[3,4-f][1,2,4]triazolo[4,3-a][1,4]diazepin-4-yl)-1-(2-oxa-6-azaspiro[3.3]hept-6-yl)ethan-1-one] gave a pIC50 [1] of 6.04, a pIC50 [2, 7] of 6.85 and a pIC50 [3] of 5.70. The pIC50 [4] was 6.05.

For `Cc1c2c(cn1C)-n1c(C)nnc1[C@H](CC(=O)N1CC3(CCS3(=O)=O)C1)N=C2c1ccc(Cl)cc1` [Example 3, (−)-2-[(4S)-6-(4-Chlorophenyl)-1,7,8-trimethyl-4,8-dihydropyrrolo[3,4-f][1,2,4]triazolo[4,3-a][1,4]diazepin-4-yl]-1-(1,1-dioxo-1λ^6-1-thia-6-azaspiro[3.3]hept-6-yl)ethan-1-one], the pIC50 [1] was 6.96, the pIC50 [2] was 7.70 and the pIC50 [5] was 6.52. For the same molecule, the pIC50 [6] was 6.85, the pIC50 [3] was 6.80 and the pIC50 [4] was 6.96.

In the case of `Cc1nnc2n1-c1cn(C)nc1C(c1ccc(Cl)cc1)=N[C@H]2CC(=O)N1CC2(COC2)C1` [Example 4, 2-[(4S)-6-(4-Chlorophenyl)-1,8-dimethyl-4,8-dihydropyrazolo[3,4-f][1,2,4]triazolo[4,3-a][1,4]diazepin-4-yl]-1-(2-oxa-6-azaspiro[3.3]hept-6-yl)ethan-1-one], the pIC50 [2, 7] was 6.34.

`Cc1c2c(cn1C)-n1c(C)nnc1[C@H](CC(=O)N1CCOC3(CCCCC3)C1)N=C2c1ccc(Cl)cc1` [Example 9, (−)-2-[(4S)-6-(4-Chlorophenyl)-1,7,8-trimethyl-4,8-dihydropyrrolo[3,4-f][1,2,4]triazolo[4,3-a][1,4]diazepin-4-yl]-1-(1-oxa-4-azaspiro[5.5]undec-4-yl)ethanone] showed a pIC50 [1] of 5.97, a pIC50 [2, 7] of 7.10 and a pIC50 [4] of 5.98.

Molecule `Cc1c2c(cn1C)-n1c(C)nnc1[C@H](CC(=O)N1CC3(CCOCC3)C1)N=C2c1ccc(Cl)cc1` [Example 11, (−)-2-[(4S)-6-(4-Chlorophenyl)-1,7,8-trimethyl-4,8-dihydropyrrolo[3,4-f][1,2,4]triazolo[4,3-a][1,4]diazepin-4-yl]-1-(7-oxa-2-azaspiro[3.5]non-2-yl)ethanone] has a pIC50 [2, 7] of 6.16.

`Cc1c2c(cn1C)-n1c(C)nnc1[C@H](CC(=O)N1CCC3(CC1)COC3)N=C2c1ccc(Cl)cc1` [Example 12, (−)-2-[(4S)-6-(4-Chlorophenyl)-1,7,8-trimethyl-4,8-dihydropyrrolo[3,4-f][1,2,4]triazolo[4,3-a][1,4]diazepin-4-yl]-1-(2-oxa-7-azaspiro[3.5]non-7-yl)ethanone] gave a pIC50 [2, 7] of 6.92 and a pIC50 [4] of 6.32.

With `Cc1c2c(cn1C)-n1c(C)nnc1[C@H](CC(=O)N1CCC3(COC3)C1)N=C2c1ccc(Cl)cc1` [Example 13, (−)-2-[(4S)-6-(4-Chlorophenyl)-1,7,8-trimethyl-4,8-dihydropyrrolo[3,4-f][1,2,4]triazolo[4,3-a][1,4]diazepin-4-yl]-1-(2-oxa-6-azaspiro[3.4]oct-6-yl)ethanone] the pIC50 [1] was 6.64, the pIC50 [2, 7] was 7.15 and the pIC50 [4] was 6.39.

`Cc1nnc2n1-c1cn(C)nc1C(c1ccc(Cl)cc1)=N[C@H]2CC(=O)N1CC2(CCS2(=O)=O)C1` [Example 15, 2-[(4S)-6-(4-Chlorophenyl)-1,8-dimethyl-4,8-dihydropyrazolo[3,4-f][1,2,4]triazolo[4,3-a][1,4]diazepin-4-yl]-1-(1,1-dioxido-1-thia-6-azaspiro[3.3]hept-6-yl)ethanone] was tested, and the pIC50 [2, 7] was 6.10 and the pIC50 [4] was 5.57.
